Experiment [1] can be described thus: Growth inhibition of human SNB75 cells at 10 uM after 48 hrs by SRB assay relative to control. It counts as functional. Particulars: SNB-75, 48 h, read-out: GI.
A short description of experiment [2]: Growth inhibition of human SF268 cells at 10 uM after 48 hrs by SRB assay relative to control. It counts as functional. Conditions: SF-268, 48 h, read-out: GI. A general note: In SRB staining, fixed cells bind dye roughly in proportion to their protein.
Experiment [3] can be described thus: Growth inhibition of human Hs 578T cells at 10 uM after 48 hrs by SRB assay relative to control. Particulars: read-out: GI. In kind it is functional.
The next experiment has as its system U-251. The experiment is described as follows: Growth inhibition of human U251 cells at 10 uM after 48 hrs by SRB assay relative to control. It counts as functional. Conditions: U-251, 48 h, read-out: GI.
For the next experiment, the system named is SK-MEL-2. In words: Growth inhibition of human SK-MEL-2 cells at 10 uM after 48 hrs by SRB assay relative to control. In kind it is functional. Particulars: SK-MEL-2, 48 h, read-out: GI.
A short description of experiment [4]: Growth inhibition of human UO31 cells at 10 uM after 48 hrs by SRB assay relative to control. It counts as functional. Particulars: UO-31, 48 h, read-out: GI.
Experiment [5] can be described thus: Growth inhibition of human SF295 cells at 10 uM after 48 hrs by SRB assay relative to control. It counts as functional. Conditions: SF-295, 48 h, read-out: GI.
Experiment [6] in a line: Growth inhibition of human NCI-ADR-RES cells at 10 uM after 48 hrs by SRB assay relative to control. It counts as functional. Particulars: read-out: GI.
Experiment [7] is described as follows: Growth inhibition of human HCC2998 cells at 10 uM after 48 hrs by SRB assay relative to control. In kind it is functional. Conditions: HCC 2998, 48 h, read-out: GI.
Experiment [8] can be described thus: Growth inhibition of human MOLT4 cells at 10 uM after 48 hrs by SRB assay relative to control. It counts as functional. Particulars: MOLT-4, 48 h, read-out: GI.
A further experiment has as its system ACHN. The experiment is described as follows: Growth inhibition of human ACHN cells at 10 uM after 48 hrs by SRB assay relative to control. In kind it is functional. Particulars: read-out: GI.
Experiment [9] can be described thus: Growth inhibition of human HOP62 cells at 10 uM after 48 hrs by SRB assay relative to control. In kind it is functional. Particulars: HOP-62, 48 h, read-out: GI.
Experiment [10] in a line: Growth inhibition of human RPMI8226 cells at 10 uM after 48 hrs by SRB assay relative to control. In kind it is functional. Particulars: RPMI-8226, 48 h, read-out: GI.
The nature of experiment [11]: Growth inhibition of human DU145 cells at 10 uM after 48 hrs by SRB assay relative to control. In kind it is functional. Conditions: DU-145, 48 h, read-out: GI.
Experiment [12] is described as follows: Growth inhibition of human OVCAR8 cells at 10 uM after 48 hrs by SRB assay relative to control. In kind it is functional. Conditions: OVCAR-8, 48 h, read-out: GI.
For the next experiment, the system named is Malme-3M. In words: Growth inhibition of human MALME-3M cells at 10 uM after 48 hrs by SRB assay relative to control. It counts as functional. Conditions: read-out: GI.
For another experiment, the system named is SN12C. The experiment is described as follows: Growth inhibition of human SN12C cells at 10 uM after 48 hrs by SRB assay relative to control. It counts as functional. Conditions: read-out: GI.
Experiment [13] can be described thus: Growth inhibition of human RXF393 cells at 10 uM after 48 hrs by SRB assay relative to control. In kind it is functional. Particulars: RXF 393, 48 h, read-out: GI.
Experiment [14] can be described thus: Growth inhibition of human OVCAR3 cells at 10 uM after 48 hrs by SRB assay relative to control. Conditions: OVCAR-3, 48 h, read-out: GI. In kind it is functional.
A short description of experiment [15]: Growth inhibition of human LOXIMVI cells at 10 uM after 48 hrs by SRB assay relative to control. It counts as functional. Particulars: LOX IMVI, read-out: GI.
The subject of the next experiment is T47D. In words: Growth inhibition of human T47D cells at 10 uM after 48 hrs by SRB assay relative to control. It counts as functional. Conditions: read-out: GI.
For the next experiment, the species on record is Ovis aries. In words: Inhibition of sheep brain tubulin polymerization at 100 uM by DAPI staining-based fluorimetric method.
For the next experiment, the system named is M14. In words: Growth inhibition of human M14 cells at 10 uM after 48 hrs by SRB assay relative to control. In kind it is functional. Particulars: M14, 48 h, read-out: GI.

On to `COc1ccc(C(=O)c2ccc3c(c2)Sc2ccccc2N3C)cc1F`, for which the inhibition of growth at 10 µM amounted to 1% in experiment [1]; 2% in experiment [2]; 7% in experiment [3]; 18% with U-251; 17% in the experiment on SK-MEL-2; 2% in [4]. Also, the inhibition of growth at 10 µM worked out at 16% in experiment [5]; 32% in experiment [6]; 5% in experiment [7]; 17% in experiment [8]; 0% in the experiment on ACHN; 17% in [9]. The inhibition of growth at 10 µM in [10] was 5%; in [11] it was 0%; in experiment [12] it was 4%; in the experiment with Malme-3M, 24%; in the experiment with SN12C, 13%; in [13], 11%. The inhibition of growth at 10 µM in experiment [14] is 40%; in experiment [15], 21%.

The inhibition is the drop in the measured response relative to a control, in per cent. As to `O=C(c1ccc(F)cc1F)N1c2ccccc2Sc2ccccc21`, the inhibition of growth at 10 µM came out at 31% in experiment [1]; 46% in experiment [2]; 16% in [3]; 66% with U-251; 19% in the experiment on SK-MEL-2; 31% in experiment [4]. Besides, the inhibition of growth at 10 µM in [5] came to 36%; in experiment [6], 55%; with T47D, 35%; in experiment [7] it was 47%; in [8] it was 69%; with ACHN, 20%. Also, the inhibition of growth at 10 µM in experiment [9] came to 33%; in the experiment on M14, 35%; in experiment [10], 47%; in [11] it was 20%; in [12] it was 35%; with Malme-3M, 44%. The inhibition of growth at 10 µM with SN12C was 9%; in experiment [13], 35%; in experiment [14] it was 43%; in experiment [15], 74%. The same compound came in with an inhibition in the experiment filed under Ovis aries of 25%.

For `O=C(c1ccc(Cl)cc1Cl)N1c2ccccc2Sc2ccccc21`, the inhibition of growth at 10 µM in experiment [1] came out at 40%; in experiment [2] it was 50%; in [3] it was 4%; in the experiment on U-251, 67%; with SK-MEL-2, 21%; in [4], 35%. The inhibition of growth at 10 µM is 47% in experiment [5]; 39% in [6]; 33% in the experiment with T47D; 35% in [7]; 74% in experiment [8]; 39% in the experiment on ACHN. The inhibition of growth at 10 µM in experiment [9] was 35%; in the experiment with M14 it was 40%; in [10], 45%; in experiment [11] it was 35%; in experiment [12] it was 49%; in the experiment on Malme-3M, 36%. For the same compound, the inhibition of growth at 10 µM stood at 33% in the experiment with SN12C, 30% in [13], 41% in experiment [14] and 76% in [15]. In addition, the inhibition in the experiment filed under Ovis aries was determined as 44%.

In the case of `O/N=C(/c1ccc2c(c1)Sc1ccccc1N2)c1c[nH]c2ccccc12`, the inhibition of growth at 10 µM in experiment [1] amounted to 47%; in [2], 44%; in experiment [3] it was 40%; in the experiment on U-251, 31%; in the experiment with SK-MEL-2, 57%; in experiment [4] it was 41%. Moreover, the inhibition of growth at 10 µM stood at 55% in experiment [5]; 80% in experiment [6]; 5% in [7]; 74% in experiment [8]; 17% in the experiment on ACHN; 42% in experiment [9]. Moreover, the inhibition of growth at 10 µM in experiment [10] was found to be 53%; in experiment [11] it was 41%; in experiment [12], 24%; in the experiment on Malme-3M it was 45%; with SN12C, 27%; in experiment [13], 24%. The figures for the inhibition of growth at 10 µM in [14] and in [15] were 96% and 44%, respectively. The compound also came in with an inhibition in the experiment listed under Ovis aries of 15%.

With `COc1ccc(C(=O)c2ccc3c(c2)Sc2cc(C(=O)c4ccc(OC)c(F)c4)ccc2N3C)cc1F`, the inhibition of growth at 10 µM was found to be 2% in [1]; 0% in experiment [2]; 17% in [3]; 10% in the experiment on U-251; 4% with SK-MEL-2; 1% in [4]. The inhibition of growth at 10 µM in experiment [5] came out at 0%; in experiment [6], 0%; in experiment [7], 0%; in [8], 0%; in the experiment on ACHN, 0%; in experiment [9] it was 6%. Besides, the inhibition of growth at 10 µM came out at 0% in experiment [10]; 0% in [11]; 6% in [12]; 5% with Malme-3M; 2% with SN12C; 2% in experiment [13]. Further, the inhibition of growth at 10 µM in experiment [14] is 16%; in experiment [15], 0%.

For `O=C(c1ccc(F)c(Cl)c1)N1c2ccccc2Sc2ccccc21`, the inhibition of growth at 10 µM in experiment [1] turned out to be 31%; in [2], 33%; in experiment [3], 21%; with U-251, 61%; in the experiment with SK-MEL-2, 35%; in experiment [4], 27%. Moreover, the inhibition of growth at 10 µM in experiment [5] worked out at 36%; in [6], 60%; in the experiment with T47D, 39%; in experiment [7], 38%; in [8], 56%; with ACHN it was 0%. Further, the inhibition of growth at 10 µM was 23% in experiment [9]; 47% with M14; 47% in experiment [10]; 10% in experiment [11]; 10% in experiment [12]; 36% in the experiment on Malme-3M. Besides, the inhibition of growth at 10 µM in the experiment on SN12C came out at 1%; in [13] it was 29%; in experiment [14], 37%; in experiment [15], 59%. Besides, the inhibition in the experiment filed under Ovis aries stood at 42%.

The values above are taken from ChEMBL document CHEMBL3792297, “Studies on phenothiazines: New microtubule-interacting compounds with phenothiazine A-ring as potent antineoplastic agents” (Bioorg Med Chem, 2016).
